Test results taken from a melting point compilation (Tetko et al.; mined from patent text by program, amines drawn as free bases though some values may be those of a salt).

First: CCCCCCCCCCCCc1ccc(NC)c([N+](=O)[O-])c1
Second: CCCCCCCCCCN=C=S
The melting point of the first is lower: 54 °C for the first, 71 to 72 °C for the second.

First: O=C(c1ccccc1)c1ccc(SCC(O)CO)cc1 (centres undefined)
Second: Cc1ccc(S(=O)(=O)Cc2ccccc2)cc1
The melting point of the first is higher: 86 to 88 °C for the first, 49 to 51 °C for the second.

First: CCCCn1c(=O)c2c(NC)n[nH]c2n(CCCl)c1=O
Second: CCCCOc1c(CN2C(=O)c3ccccc3C2=O)n(CCNC(=O)OC)c(=O)c2cc(Cl)c(Cl)cc12
The melting point of the first is higher: 270 to 272 °C for the first, 241 to 243 °C for the second.

First: COc1cc(C)nc(NC(=O)NS(=O)(=O)c2cccc3cccnc23)n1
Second: CN1CCN(CNC(=O)c2cccc(Nc3nccc(-c4cccnc4)n3)c2)CC1
The melting point of the first is lower: 181 to 185 °C for the first, 220 to 224 °C for the second.

Compared with O=C(Cl)OCC1c2ccccc2Oc2ccccc21, Nn1c(-c2ccccc2Cl)nnc1-c1ccccc1Cl is higher in melting point: 64 to 65 °C for the first, 168 to 170 °C for the second.

Compared with Cc1cccc(OC2CN(C(N)=O)C2)c1, Cc1cc2c(c(NC(C(N)=O)c3c(Cl)cccc3Cl)c1)C(=O)CC2 (centres undefined) is higher in melting point: 167 to 168 °C for the first, 250 °C for the second.

First: CCN1CCN(c2c(F)cc3c(=O)c(C(=O)O)cn(CC)c3c2F)CC1
Second: Cc1noc(NC(=O)N2CCN(c3ccnc(-c4cccc(F)c4F)n3)CC2)c1C
The melting point of the first is higher: 236 to 239 °C for the first, 209 to 210 °C for the second.

First: O=C1CCC(N2C(=O)c3cccc(NCc4ccco4)c3C2=O)C(=O)N1 (centres undefined)
Second: CN1C(=O)C2(COc3cc4c(cc32)OCO4)c2c(C3CCOC3)cccc21 (centres undefined)
The melting point of the first is lower: 171 to 173 °C for the first, 182 to 184 °C for the second.

First: CN1C(=O)SCC1C(=O)NCCO[N+](=O)[O-] (centres undefined)
Second: COC(=O)OCCNC(=O)C(F)(F)Cc1c[nH]c([N+](=O)[O-])n1
The melting point of the first is higher: 105 to 106 °C for the first, 50.5 to 52.5 °C for the second.

First: CCCCCCOc1ccc(C=[N+]([O-])CCC)cc1
Second: N=C(N)N(CCCCc1ccc(OCC(=O)Nc2ccccc2)cc1)C(=O)c1nc(Cl)c(N)nc1N
The melting point of the first is lower: 45 °C for the first, 168 to 170 °C for the second.

First: Cc1nc(-n2cnn(CC3CC3)c2=O)sc1C(=O)NCc1cc[nH]n1
Second: CCOC(=O)c1csc(N2CCOC2=O)n1
The melting point of the first is higher: 167 to 168 °C for the first, 157 to 159 °C for the second.

First: CS(=O)(=O)OC1CCc2c(sc(N)c2C(=O)c2ccc(Cl)cc2)C1 (centres undefined)
Second: Nc1ccc(C(=O)N2CCCC(=O)c3sccc32)cc1
The melting point of the first is lower: 73 to 75 °C for the first, 216 to 218 °C for the second.

First: N#CC(=CNC1CC1)C(=O)c1ccc(Cl)cc1Cl
Second: NC(=O)N1CCCC2=C1CCc1cc(Cl)ccc12
The melting point of the first is lower: 93 to 94 °C for the first, 169 to 171 °C for the second.

Compared with CCOC(=O)C1=C(C)Nc2ccnc(OC(C)C)c2C1c1ccccc1Cl (centres undefined), CNC(=O)Oc1ccccc1Cl is lower in melting point: 135 to 136 °C for the first, 90 to 91 °C for the second.

Compared with O=c1[nH]nc2c3c(cccc13)N=C(CN1CCCN(S(=O)(=O)c3ccccc3)CC1)N2, O=c1c(N2CCNCC2)nc2ccccc2n1-c1ccccc1Cl is lower in melting point: 265 to 268 °C for the first, 135 to 137 °C for the second.

Compared with CC(=O)N1CC=C(C#Cc2ccc3c(c2)NC(=O)CC(c2cccc(C#N)c2)=N3)CC1, O=C1C(Cc2ccncc2)c2ccccc2N1N1CCOCC1 (centres undefined) is lower in melting point: 203 °C for the first, 108 to 110 °C for the second.

Compared with CC(O)c1cc(Br)c(N)c(CN(C)C)c1 (centres undefined), CC(C)NCC#CC(O)c1ccccc1-c1ccccc1 (centres undefined) is higher in melting point: 69 to 72 °C for the first, 116 to 119 °C for the second.

Compared with CC(=O)OC1OCC[C@@H]1NC(=O)[C@H](Cc1ccccc1)NC(=O)OC(C)(C)C (some centres undefined), CCCNc1nc2ccccn2c(=O)c1-c1ccc(NC2CCN(C(=O)OC(C)(C)C)C2)cc1 (centres undefined) is higher in melting point: 156 to 157 °C for the first, 187 to 190 °C for the second.

First: O=Cc1c[nH]c2c1ccc1c3ccccc3[nH]c12
Second: COCOc1c(OC)cc(C=O)c2cccc(C)c12
The melting point of the first is higher: greater than 290 °C for the first, 48 to 50 °C for the second.

First: Nc1cc(OCc2ccccc2)c(OCc2ccccc2)cc1C=C(Br)Br
Second: CCc1noc(-c2cn(-c3cccc(OCc4ccccc4)c3)cn2)n1
The melting point of the first is lower: 95 to 98 °C for the first, 113 to 114 °C for the second.

Compared with NC(=O)c1cn(Cc2ccccc2F)nn1, Cc1ccccc1-c1ccn(C(C)(C)C(=O)N(C)C)n1 is lower in melting point: 220 to 222 °C for the first, 78.5 to 81 °C for the second.

First: Nc1ccc(S(=O)(=O)Nc2ccn(C3CCCCC3)c(=O)n2)cc1
Second: Cc1ccc(S(=O)(=O)N2Cc3cnc(C)n3-c3ccc(Cl)cc3C2c2ccccc2F)cc1 (centres undefined)
The melting point of the first is lower: 100 to 120 °C for the first, 152 to 153 °C for the second.

First: CCCc1nn(C)c2c(=O)n(CCNc3ccc(C(C)=O)cc3)c(-c3ccc(OC)c(OC)c3)nc12
Second: CC(=O)Nc1nc(-c2ccc(CCC(=O)O)cc2)c(Cc2ccc(S(C)(=O)=O)cc2)s1
The melting point of the first is lower: 182 to 184 °C for the first, 208 to 210 °C for the second.

Compared with CCOC(=O)C=C(C)C=CC=C(C)C=Cc1c(Cl)cc(OC)cc1Cl, COc1cc(O)c(C=O)c(-c2nc(C)no2)c1C is higher in melting point: 117 to 118 °C for the first, 135 to 136 °C for the second.

First: COC(=O)c1ccc(N)cc1C(=O)OC
Second: COC(=O)C1CSc2sccc2C1=O (centres undefined)
The melting point of the first is lower: 83 to 85 °C for the first, 94 to 97 °C for the second.

Compared with Oc1cccc2c1CC=CC2, CC(CCc1cccc(F)c1)NCc1c(CO)ccc(O)c1CO (centres undefined) is higher in melting point: 70.5 to 72 °C for the first, 114 to 117 °C for the second.

Compared with OC1(c2ccc(C(F)(F)F)cc2)CCN(CCCc2noc3cc(F)ccc23)CC1, Cc1cc(-c2ncn3c(C(F)(F)F)cc(-c4cccc(C(F)(F)F)c4)nc23)ccn1 is higher in melting point: 150 to 152 °C for the first, 234 °C for the second.

Compared with CC(C)Cn1c(-c2ccccc2)nc2cnc3ccccc3c21, CC(C)(c1ccccc1)N(C(N)=O)C(C)(C)c1ccccc1 is higher in melting point: 139 to 140 °C for the first, 226 to 227 °C for the second.

CCC[C@H]1CC[C@H](c2ccc(-c3ccccc3)c(F)c2)CC1 and COCCc1ccc(-c2ccc(I)cc2)cc1 cannot be ordered by melting point: 96.5 to 97.3 °C for the first, 97 to 99.4 °C for the second.

First: CCN[C@H]1C[C@H](CCCOCCOC)S(=O)(=O)c2sc(S(N)(=O)=O)cc21 (relative stereo)
Second: CCS(=O)(=O)CCn1c(=N)sc2cc(C(F)(F)C(F)(F)F)ccc21
The melting point of the first is higher: 177 to 179 °C for the first, 125 °C for the second.

First: COc1cc2c(cc1O)CCN(Cc1cc(F)cc(F)c1)C2
Second: CC(NC(=O)Cc1cc(F)cc(F)c1)C(=O)NC1(F)NC(=O)Cc2ccccc21 (centres undefined)
The melting point of the first is lower: 110 to 111 °C for the first, 195 to 200 °C for the second.

First: COc1ccc(N2CCN(c3c(C)c(C)c4c(c3C)C(O)(c3ccccn3)C(C)(C)O4)CC2)cc1 (centres undefined)
Second: COc1ccc(OC2c3cc(C#N)ccc3OC(C)(C)C2O)nn1 (centres undefined)
The melting point of the first is lower: 113 to 115 °C for the first, 224 to 227 °C for the second.

First: COCCCNc1nc(N)c(SC)c(F)n1
Second: CCOc1cc2c(Cl)c(C#N)cnc2cc1F
The melting point of the first is lower: 48 to 64 °C for the first, 165 to 166 °C for the second.

First: N#Cc1cc(-c2ccncc2)cnc1Cl
Second: O=c1c2ccc(Cl)cc2sn1CCCCl
The melting point of the first is higher: 219 to 223 °C for the first, 89 °C for the second.

First: O=C1C=C(O[C@@H]2c3cc([N+](=O)[O-])ccc3OC(CF)(CF)[C@H]2O)CC1 (relative stereo)
Second: CCN(CC)C(=O)OCC1CN(C(=O)c2cc(OC)c(OC)c(OC)c2)CCN1C(=S)c1cc(OC)c(OC)c(OC)c1 (centres undefined)
The melting point of the first is higher: 206 to 208 °C for the first, 175 °C for the second.

Compared with O=C(c1cccs1)c1cnn2c(-c3ccc(F)c(N(C(=O)c4ccccc4Cl)C(=O)c4ccccc4Cl)c3)ccnc12, O=C(C=Cc1cccnc1)NC(Cc1c[nH]c2ccccc12)C(=O)CCc1cc(C(F)(F)F)cc(C(F)(F)F)c1 (centres undefined) is lower in melting point: 150 to 151 °C for the first, 138 to 139 °C for the second.

First: CN(C)c1ccc(C2(c3ccc(N(C)C)cc3)NNC(=O)c3cc(N(C)C)ccc32)cc1
Second: CCCc1c(Cl)sc2[nH]c(=O)c(=O)[nH]c12
The melting point of the first is lower: 265 to 270 °C for the first, 285 to 287 °C for the second.
